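Method: 48-hour compound exposure of cells in 96-well plates, five concentrations, linear interpolation of endpoints. GI50 marks 50% less growth. TGI denotes the concentration required for complete inhibition of growth.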
Assays:
Assay in all cases: DTP human tumour cell line panel, 48 h
MOLT-4 leukemia = tested on: MOLT-4 leukemia
HOP-62 NSCLC = tested on: HOP-62 NSCLC
NCI-H226 lung = tested on: NCI-H226 lung
HCC-2998 colon = tested on: HCC-2998 colon
COLO 205 colon = tested on: COLO 205 colon
T-47D breast = tested on: T-47D breast
SN12C renal = tested on: SN12C renal
MDA-MB-231 breast = tested on: MDA-MB-231 breast
TK-10 renal = tested on: TK-10 renal
SNB-75 CNS = tested on: SNB-75 CNS
CAKI-1 renal = tested on: CAKI-1 renal

In the case of `c1nc(N2CC2)c2cnn(C3CCCCO3)c2n1` (stereo unspecified), the TGI (MOLT-4 leukemia) is reported as > 100 µM, the TGI (HOP-62 NSCLC) is reported as > 100 µM and the TGI (NCI-H226 lung) is reported as > 100 µM. For the same molecule, the TGI (HCC-2998 colon) was > 100 µM, the TGI (COLO 205 colon) was > 100 µM and the TGI (T-47D breast) was > 100 µM. For the same molecule, the TGI (SN12C renal) was > 100 µM, the TGI (MDA-MB-231 breast) was > 100 µM and the TGI (TK-10 renal) was > 100 µM. The TGI (SNB-75 CNS) was > 100 µM and the TGI (CAKI-1 renal) was > 100 µM.
Work on `OCCCNc1nc(=S)[nH]c2[nH]ncc12` yielded a GI50 (NCI-H226 lung) of 27.6 µM, a TGI (NCI-H226 lung) of 72.6 µM and a GI50 (HCC-2998 colon) of 22.3 µM. For the same molecule, the TGI (HCC-2998 colon) was > 100 µM, the GI50 (COLO 205 colon) was 29.3 µM and the TGI (COLO 205 colon) was > 100 µM. For the same molecule, the GI50 (T-47D breast) was 45 µM, the TGI (T-47D breast) was > 100 µM and the GI50 (SN12C renal) was 41 µM. For the same molecule, the TGI (SN12C renal) was > 100 µM, the GI50 (TK-10 renal) was 33.6 µM and the TGI (TK-10 renal) was > 100 µM. For the same molecule, the GI50 (SNB-75 CNS) was > 100 µM, the TGI (SNB-75 CNS) was > 100 µM and the GI50 (CAKI-1 renal) was 43.3 µM. The TGI (CAKI-1 renal) was > 100 µM.
With `CCOC(=O)NC(=O)c1cn(CCNCCO)c(=O)[nH]c1=O` the TGI (MOLT-4 leukemia) was > 100 µM, the TGI (HOP-62 NSCLC) was > 100 µM and the TGI (NCI-H226 lung) was > 100 µM. The TGI (COLO 205 colon) was > 100 µM, the TGI (SN12C renal) was > 100 µM and the TGI (SNB-75 CNS) was > 100 µM. The TGI (CAKI-1 renal) was > 100 µM.
For `CCN(CCO)C(=O)C1(c2ccccc2)CCCCC1`, the TGI (MOLT-4 leukemia) was > 10 µM, the TGI (HOP-62 NSCLC) was > 10 µM and the TGI (NCI-H226 lung) was > 10 µM. The TGI (HCC-2998 colon) was > 10 µM, the TGI (COLO 205 colon) was > 10 µM and the TGI (T-47D breast) was > 10 µM. For the same molecule, the TGI (SN12C renal) was > 10 µM, the TGI (MDA-MB-231 breast) was > 10 µM and the TGI (TK-10 renal) was > 10 µM. For the same molecule, the TGI (SNB-75 CNS) was > 10 µM and the TGI (CAKI-1 renal) was > 10 µM.
In the case of `COc1ccc(CC2CCc3nc(N)nc(N)c3C2)cc1OC` (stereo unspecified), the TGI (MOLT-4 leukemia) is reported as > 100 µM, the TGI (HOP-62 NSCLC) is reported as > 100 µM and the TGI (NCI-H226 lung) is reported as 42.4 µM. The TGI (HCC-2998 colon) was > 47 µM, the TGI (COLO 205 colon) was 36 µM and the TGI (T-47D breast) was > 82.6 µM. The TGI (SN12C renal) was > 100 µM, the TGI (MDA-MB-231 breast) was > 75.2 µM and the TGI (TK-10 renal) was > 100 µM. For the same molecule, the TGI (SNB-75 CNS) was > 100 µM and the TGI (CAKI-1 renal) was > 100 µM.
